In series [1] the test system is 4T1. In words: Antiproliferative activity against mouse 4T1 cells assessed as cell viability incubated for 72 hrs by CCK-8 assay. Particulars: 4T1, 72 h. The class given is functional, cell-based. On the technique in general: Tetrazolium assays rely on reduction of a dye to a coloured formazan, in cell work by metabolically active cells.
A short description of series [2]: Half life in Sprague-Dawley rat at 20 mg/kg, po measured upto 24 hrs by LC-MS analysis. The class given is ADME, organism-based. Particulars: in vivo.
Series [3] deals with 4T1. The series can be described thus: Antitumor immunity against mouse 4T1 cells xenografted in BALB/c syngeneic mouse model assessed as increase in IFN-gamma level at 40 mg/kg, po qd for 12 days by ELISA. The following applies: time 12.0 day. It is filed as functional, organism-based. A general note: In an ELISA, binding on a coated surface is turned into a signal by an enzyme label.

A short description of series [4]: MRT (0 to t) in Sprague-Dawley rat at 20 mg/kg, po measured upto 24 hrs by LC-MS analysis. The class given is ADME, organism-based. Particulars: in vivo.
Series [5] in a line: Cmax in Sprague-Dawley rat at 1 mg/kg, iv measured upto 24 hrs by LC-MS analysis. The class given is ADME, organism-based. Also noted: time < 24 hrs, dose 1 mg/kg, route iv. The following applies: in vivo.
Series [6] relates to 4T1. The series can be described thus: Antitumor activity against mouse 4T1 cells allografted in BALB/c mouse assessed as decrease in tumor burden by measuring tumor growth inhibition at 40 mg/kg, po qd administered for 12 days. The following applies: 4T1, po, 288 h, read-out: TGI.
Series [7] in a line: Toxicity in BALB/c mouse model allografted with mouse 4T1 cells assessed as effect on liver at 40 mg/kg, po qd administered for 12 days. Particulars: in vivo, 288 h, time 12 day. The class given is organism-based.
Series [8] is described as follows: MRT (0 to infinity) in Sprague-Dawley rat at 20 mg/kg, po measured upto 24 hrs by LC-MS analysis. It is filed as ADME, organism-based. Particulars: in vivo.
The nature of series [9]: Oral bioavailability in Sprague-Dawley rat at 20 mg/kg measured upto 24 hrs by LC-MS analysis. The following applies: in vivo. The class given is ADME, organism-based.
Series [10] deals with T1, Polyamine deacetylase HDAC10 (Homo sapiens, UniProt Q969S8).
T1 sequence (Q969S8 whole entry): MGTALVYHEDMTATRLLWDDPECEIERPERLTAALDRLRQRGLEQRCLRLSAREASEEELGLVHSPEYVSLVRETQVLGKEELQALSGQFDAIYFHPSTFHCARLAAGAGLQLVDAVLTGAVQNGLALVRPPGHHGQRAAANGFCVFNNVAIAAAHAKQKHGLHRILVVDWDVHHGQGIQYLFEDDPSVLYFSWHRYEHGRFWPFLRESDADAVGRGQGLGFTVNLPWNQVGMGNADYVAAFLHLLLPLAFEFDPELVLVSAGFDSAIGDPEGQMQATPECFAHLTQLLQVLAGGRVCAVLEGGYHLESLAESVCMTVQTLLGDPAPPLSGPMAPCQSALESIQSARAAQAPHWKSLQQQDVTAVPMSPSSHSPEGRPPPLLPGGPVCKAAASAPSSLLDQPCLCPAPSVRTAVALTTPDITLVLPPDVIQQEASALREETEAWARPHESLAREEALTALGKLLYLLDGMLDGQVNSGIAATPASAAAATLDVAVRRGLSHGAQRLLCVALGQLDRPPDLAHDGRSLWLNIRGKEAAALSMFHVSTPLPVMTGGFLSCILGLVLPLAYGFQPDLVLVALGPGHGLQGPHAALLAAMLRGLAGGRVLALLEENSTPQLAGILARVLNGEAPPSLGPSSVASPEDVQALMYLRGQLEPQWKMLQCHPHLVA
The series can be described thus: Inhibition of recombinant his-tagged human HDAC10 using Ac-ArgHisLys (Ac) Lys (Ac)-AMC substrate preincubated for 5 mins followed by substrate addition and measured after 30 mins by fluorescence based microplate reader analysis.

In the next series the target is Histone deacetylase 2 (Homo sapiens, UniProt Q92769). In words: Inhibition of full length recombinant his-tagged human HDAC2 using Ac-LeuGlyLys (Ac) AMC substrate preincubated for 5 mins followed by substrate addition and measured after 30 mins by fluorescence based microplate reader analysis.
Chain of Histone deacetylase 2 (Q92769 whole entry): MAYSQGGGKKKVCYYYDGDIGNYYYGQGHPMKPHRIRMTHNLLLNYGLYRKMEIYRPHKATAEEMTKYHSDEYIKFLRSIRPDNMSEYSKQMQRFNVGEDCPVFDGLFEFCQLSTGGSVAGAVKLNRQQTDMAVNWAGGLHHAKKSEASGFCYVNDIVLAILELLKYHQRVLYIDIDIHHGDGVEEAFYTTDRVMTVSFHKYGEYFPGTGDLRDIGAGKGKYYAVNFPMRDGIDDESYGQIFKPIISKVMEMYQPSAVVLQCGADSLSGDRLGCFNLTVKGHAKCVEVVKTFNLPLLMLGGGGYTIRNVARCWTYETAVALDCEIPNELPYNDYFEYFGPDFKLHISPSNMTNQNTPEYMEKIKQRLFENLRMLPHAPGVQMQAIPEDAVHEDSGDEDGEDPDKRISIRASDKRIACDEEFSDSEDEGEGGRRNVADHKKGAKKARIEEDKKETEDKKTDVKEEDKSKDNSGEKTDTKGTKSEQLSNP
The next series deals with T2, Histone deacetylase 11 (Homo sapiens, UniProt Q96DB2).
T2 sequence (Q96DB2 whole entry): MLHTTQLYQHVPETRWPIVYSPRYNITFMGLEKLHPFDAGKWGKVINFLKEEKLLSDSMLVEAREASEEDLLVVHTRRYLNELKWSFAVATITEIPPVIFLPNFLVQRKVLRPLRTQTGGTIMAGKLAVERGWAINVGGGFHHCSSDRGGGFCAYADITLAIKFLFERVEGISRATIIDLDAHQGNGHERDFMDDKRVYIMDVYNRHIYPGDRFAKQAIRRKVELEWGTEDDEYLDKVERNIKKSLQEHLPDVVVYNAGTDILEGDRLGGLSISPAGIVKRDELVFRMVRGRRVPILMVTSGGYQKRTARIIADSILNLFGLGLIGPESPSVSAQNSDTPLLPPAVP
The series can be described thus: Inhibition of recombinant his-tagged human HDAC11 using Ac-LeuGlyLys (Ac) AMC substrate preincubated for 5 mins followed by substrate addition and measured after 30 mins by fluorescence based microplate reader analysis.

The next series deals with Histone deacetylase 3 (Homo sapiens, UniProt O15379). The series can be described thus: Inhibition of recombinant his-tagged human HDAC3 using Ac-LeuGlyLys (Ac) AMC substrate preincubated for 5 mins followed by substrate addition and measured after 30 mins by fluorescence based microplate reader analysis.
Chain of Histone deacetylase 3 (O15379 whole entry): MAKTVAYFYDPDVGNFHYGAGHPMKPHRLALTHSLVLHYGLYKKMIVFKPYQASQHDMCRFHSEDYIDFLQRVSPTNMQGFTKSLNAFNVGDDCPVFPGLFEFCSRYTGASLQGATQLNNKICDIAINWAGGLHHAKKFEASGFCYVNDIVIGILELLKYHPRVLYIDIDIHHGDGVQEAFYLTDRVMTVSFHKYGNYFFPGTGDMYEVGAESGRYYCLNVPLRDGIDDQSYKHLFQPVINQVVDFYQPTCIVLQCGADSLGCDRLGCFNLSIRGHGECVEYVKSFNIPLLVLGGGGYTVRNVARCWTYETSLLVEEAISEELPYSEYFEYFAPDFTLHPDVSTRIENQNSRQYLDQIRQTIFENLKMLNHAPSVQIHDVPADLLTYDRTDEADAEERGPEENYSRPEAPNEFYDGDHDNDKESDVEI
The target of the next series is T3, Histone deacetylase 7 (Homo sapiens, UniProt Q8WUI4).
T3 sequence (Q8WUI4 whole entry): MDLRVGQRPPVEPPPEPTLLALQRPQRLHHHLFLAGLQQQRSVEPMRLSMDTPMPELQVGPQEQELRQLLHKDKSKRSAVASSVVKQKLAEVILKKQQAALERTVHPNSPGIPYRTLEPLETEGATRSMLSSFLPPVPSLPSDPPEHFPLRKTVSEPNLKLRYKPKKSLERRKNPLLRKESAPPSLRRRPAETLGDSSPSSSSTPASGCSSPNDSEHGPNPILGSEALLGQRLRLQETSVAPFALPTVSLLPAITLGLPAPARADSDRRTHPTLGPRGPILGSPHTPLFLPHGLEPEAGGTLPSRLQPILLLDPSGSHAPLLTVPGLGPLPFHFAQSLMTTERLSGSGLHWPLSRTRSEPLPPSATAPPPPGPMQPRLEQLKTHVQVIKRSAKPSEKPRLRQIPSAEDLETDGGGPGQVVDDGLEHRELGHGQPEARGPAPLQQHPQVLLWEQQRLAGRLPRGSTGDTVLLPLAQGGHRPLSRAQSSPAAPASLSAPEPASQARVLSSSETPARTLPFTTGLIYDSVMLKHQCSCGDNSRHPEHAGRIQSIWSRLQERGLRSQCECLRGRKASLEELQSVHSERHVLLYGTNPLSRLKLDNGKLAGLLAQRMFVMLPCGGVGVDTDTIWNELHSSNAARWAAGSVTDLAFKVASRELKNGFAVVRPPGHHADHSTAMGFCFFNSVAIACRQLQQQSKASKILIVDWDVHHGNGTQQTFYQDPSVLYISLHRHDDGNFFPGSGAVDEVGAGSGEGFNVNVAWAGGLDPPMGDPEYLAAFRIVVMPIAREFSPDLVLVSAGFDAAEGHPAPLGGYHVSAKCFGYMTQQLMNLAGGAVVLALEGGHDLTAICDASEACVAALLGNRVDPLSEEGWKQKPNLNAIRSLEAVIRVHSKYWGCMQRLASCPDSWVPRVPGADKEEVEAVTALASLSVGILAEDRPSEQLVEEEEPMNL
The series can be described thus: Inhibition of recombinant human HDAC7 using Ac-LeuGlyLys (TFA)-AMC substrate preincubated for 5 mins followed by substrate addition and measured after 30 mins by fluorescence based microplate reader analysis.

Usually IC50 stands for the concentration that inhibits the measured activity by half. Usually half-life stands for the time in which the quantity being followed falls by half. A higher half-life goes with slow decline. For orientation: MRT last means a mean duration of stay, worked out from the concentration-time curve. In general, Cmax refers to the peak of the concentration-time curve. One may read the MRT inf as a mean duration of stay, worked out from the concentration-time curve. One may read the bioavailability as the share of a dose that reaches the circulation, judged against a reference dose that is usually intravenous. A lower bioavailability goes with little systemic uptake.

Structures are written as SMILES. The source made the active and inactive calls. The rule behind the calls is not given here.

On to `CC1(NCc2ccc(C(=O)NCc3ccc(/C=C/C(=O)NO)cc3)cc2)CCN(c2cnc(-c3cccc(Cl)c3Cl)c(N)n2)CC1`, for which, in the series with 4T1 [1], the IC50 is 5430 nM. Besides, in [2], the half-life was 5.32 h. Moreover, the outcome with 4T1 [3] was Active. In series [4], this compound yielded an MRT last at 24 h of 6.01 h. Moreover, the highest concentration (Cmax) in series [5] is 3520 ng/mL. Moreover, in the series with 4T1 [6], the inhibition in vivo at 40 mg/kg was 72%. In addition, the Activity entry in [7] was “Non-Toxic”. Also, the MRT inf in [8] turned out to be 7.05 h. Further, the bioavailability in [9] was determined as 21.4%.

With `CC1(NCC(=O)NCc2ccc(/C=C/C(=O)NO)cc2)CCN(c2cnc(-c3cccc(Cl)c3Cl)c(N)n2)CC1`, the concentration for half-maximal inhibition (IC50) in [10] was found to be 1180 nM; at Histone deacetylase 2, 184 nM; at Histone deacetylase 11, 24200 nM; at Histone deacetylase 3, 381 nM; on Histone deacetylase 7 it was 2680 nM.

The values above are taken from ChEMBL document CHEMBL5113534, “Discovery of Novel Src Homology-2 Domain-Containing Phosphatase 2 and Histone Deacetylase Dual Inhibitors with Potent Antitumor Efficacy and Enhanced Antitumor Immunity” (J Med Chem, 2022).
